The source of these data is US20050148598A1, “Trioxane derivatives” (priority 2001, published 2005).

Where two headings read alike, the source gives them in different places.

One series concerns L1210 cells. The following applies: cited from earlier work.
Series [1] deals with HB3 strain of P. falciparum. Kind of series: 48-h [3H]-hypoxanthine incorporation antimalarial sensitivity assay, HB3 strain. The following applies: HB3 strain (sensitive) of P. falciparum in vitro. It is filed as cell-based. As to the method:
(§1) The antimalarial activity of the new compounds was assessed using two strains of P. falciparum from Thailand: (a) the uncloned K1 strain which is known to be CQ resistant and (b) the HB3 strain which is sensitive to all antimalarials. Parasites were maintained in continuous culture using the method of Trager and Jenson (J. Parasitol., 1977, 63, 883-886). Cultures were grown in flasks containing human erythrocytes (2-5%) with parasitemia in the range of 1% to 10% suspended in RPMI 1640 medium supplemented with 25 mM HEPES and 32 mM NaHCO3, and 10% human serum (complete medium). Cultures were gassed with a mixture of 3% O2, 4% CO2 and 93% N2.
(§2) Antimalarial activity was assessed with an adaption of the 48-h sensitivity assay of Desjardins et al. (Antimicrob. Agents. Chemother., 1979, 16, 710-718) using [^3H]-hypoxanthine incorporation as an assessment of parasite growth. Stock drug solutions were prepared in 100% dimethylsulphoxide (DMSO) and diluted to the appropriate concentration using complete medium. Assays were performed in sterile 96-well microtitre plates, each plate containing 200 μl of parasite culture (2% parasitemia, 0.5% haematocrit) with or without 10 μl drug dilutions. Each drug was tested in triplicate and parasite growth was compared to control wells (which constituted 100% parasite growth). After 24-h incubation at 37° C., 0.5 μCi hypoxanthine was added to each well. Cultures were incubated for a further 24 h before they were harvested onto filter-mats, dried for 1 h at 55° C. and counted using a Wallac 1450 Microbeta Trilux Liquid scintillation and luminescence counter. IC50 values were calculated by interpolation of the probit transformation of the log dose—response curve.

Series [2] concerns K1 strain of P. falciparum. Kind of series: 48-h [3H]-hypoxanthine incorporation antimalarial sensitivity assay, K1 strain. The series is classed as cell-based. The protocol: as §1, §2
In another series the test system is SF-268 (CNS). Kind of series: NCI 3-cell line anticancer assay, SF-268. The series is classed as cell-based. As to conditions: 1.00E−04 Molar, 48 hours, sulforhodamine B. The protocol:
(§3) The anticancer activity of these compounds of the present invention was also assessed, by NCI 3-cell line anticancer assay. In this protocol, each cell line is inoculated and preincubated on a microtiter plate. Test agents are then added at a single concentration and the culture incubated for 48 hours. End-point determinations are made with sulforhodamine B, a protein-binding dye. Results for each test agent are reported as the percentage of growth of the treated cells when compared to the untreated control cells. Compounds which reduce the growth of any one of the cells lines to 32% or less (negative numbers indicate cell kill) are passed on for evaluation in the full panel of 60 cell lines over a 5-log dose range.

A further series deals with MCF7 (Breast). Kind of series: NCI 3-cell line anticancer assay, MCF7. As to conditions: 1.00E−04 Molar, 48 hours, sulforhodamine B. It is filed as cell-based. The protocol:
as §3

The next series has as its system NCI-H460 (Lung). Kind of series: NCI 3-cell line anticancer assay, NCI-H460. The series is classed as cell-based. The following applies: 1.00E−04 Molar, 48 hours, sulforhodamine B. As to the method: as §3
Where [3] appears, read: K1 strain (CQ resistant) of P. falciparum in vitro, read-out: IC50.
[4] abbreviates: Plasmodium falciparum, K1 strain (CQ resistant) of P. falciparum in vitro, read-out: IC50.

Turning to `CCNCCCNCCCNCCCNCC` [DENSPM], the “cytotoxic effects in L1210 cells” value in the series on L1210 cells is 1.3 µM.
Take `CC1CCC2C(C)C(OCc3cccc(CN4CCN(c5ccc(F)cc5)CC4)c3)OC3OC4(C)CCC1C32OO4` (stereo not drawn) [Compound 13j, 10β-[[3-[(4-Fluorophenylpiperazyl)methyl]benzyl]oxy]dihydroartemisinin]: the half-maximal inhibitory concentration (IC50) in series [1] and in series [2] (setting [3]) was 12.6 nM in each case.
Regarding `C[C@H]1[C@@H](OCc2cccc(CN3CCN(c4ccc(Cl)cc4)CC3)c2)O[C@@H]2O[C@@]3(C)CC[C@H]4[C@H](C)CC[C@@H]1[C@@]24OO3` [Compound 13h, 10β-[[3-[(4-Chlorophenylpiperazyl)methyl]benzyl]oxy]dihydroartemisinin], the “percentage of growth of the treated cells compared to untreated control cells, SF-268 (CNS)” value (“percentage of growth … (CNS)” below) in the series with SF-268 (CNS) is on record as 31%. Moreover, the half-inhibitory concentration (IC50) in series [2] (setting [3]) stood at 13.3 nM. Further, in the series on MCF7 (Breast), the “percentage of growth of the treated cells compared to untreated control cells, MCF7 (Breast)” value (from here on “percentage of growth … (Breast)”) came to 11%. The “percentage of growth of the treated cells compared to untreated control cells, NCI-H460 (Lung)” value (from here on “percentage of growth … (Lung)”) with NCI-H460 (Lung) is listed as 22%.
For `CC1CCC2C(C)C(OCc3cccc(CN4CCN(c5ccc([N+](=O)[O-])cc5)CC4)c3)OC3OC4(C)CCC1C32OO4` (stereo not drawn) [Compound 13g, 10β-[[3-[(4-Nitrophenylpiperazyl)methyl]benzyl]oxy]dihydroartemisinin], the IC50 in series [1] and in series [2] (setting [3]) was 4.3 nM throughout.
`CCN(CC)CCCC(C)Nc1ccnc2cc(Cl)ccc12` (stereo not shown) [Chloroquine, chloroquine, reference compound] displayed a concentration for half-maximal inhibition (IC50) in series [2] (Plasmodium falciparum, K1) of 255 nM.
With `CCNCCCCNCCCCNCCCCNCC` [DEHSPM], the “cytotoxic effects in L1210 cells” value with L1210 cells is 0.06 µM.
As for `C[C@@H]1CCC2[C@@H](C)[C@@H](OCc3ccc(CN4CCN(Cc5ccccc5)CC4)cc3)OC3O[C@@]4(C)CC[C@@H]1[C@]32OO4` (stereo partly drawn) [Compound 13e, 10β-[[4-[(Benzylpiperazyl)methyl]benzyl]oxy]dihydroartemisinin], the results for the IC50 in series [1] (Plasmodium falciparum) and in series [2] (setting [4]) were 1.8 nM and 3.8 nM, respectively.
For `CO[C@H]1O[C@@H]2O[C@@]3(C)CC[C@H]4[C@H](C)CC[C@@H]([C@H]1C)[C@@]24OO3` [Artemether, artemether, reference compound], in that order: 9.2 nM and 6.5 nM.
As for `CC1CCC2C(C)C(OCc3cccc(CN4CCN(c5cccc(C(F)(F)F)c5)CC4)c3)OC3OC4(C)CCC1C32OO4` (stereo not drawn) [Compound 13i, 10β-[[3-[(3-Trifluoromethylphenylpiperazyl)methyl]benzyl]oxy]dihydroartemisinin], the “percentage of growth … (CNS)” value in the series on SF-268 (CNS) was 29%. In addition, the IC50 in series [2] (setting [3]) is 22.5 nM. Also, in the series on MCF7 (Breast), the “percentage of growth … (Breast)” value was determined as 10%. Also, the “percentage of growth … (Lung)” value in the series on NCI-H460 (Lung) is reported as 15%.
As to `CC1CCC2C(C)C(OCc3ccc(CN4CCN(c5ccc(F)cc5)CC4)cc3)OC3OC4(C)CCC1C32OO4` (stereo not drawn) [Compound 13c, 10β-[[4-[(4-Fluorophenylpiperazyl)methyl]benzyl]oxy]dihydroartemisnin], in the series on SF-268 (CNS), the “percentage of growth … (CNS)” value is recorded as 27%. Moreover, the half-maximal inhibitory concentration (IC50) in series [1] was found to be 2.3 nM; in series [2] (setting [3]), 6.3 nM. Besides, in the series on MCF7 (Breast), the “percentage of growth … (Breast)” value worked out at 13%. Moreover, the “percentage of growth … (Lung)” value in the series on NCI-H460 (Lung) amounted to 12%.
As to `CCNCCCNCCCCNCCCNCC` [DESPM], the “cytotoxic effects in L1210 cells” value in the series with L1210 cells was 0.2 µM.
For “10β-[[4-[Phenylpiperazyl)methyl]benzyl]dihydroartemisinin [Compound 13a]”, the half-inhibitory concentration (IC50) in series [2] (setting [3]) was determined as 8.2 nM.
For `CC1CCC2C(C)C(OCc3cccc(CN4CCN(c5ccccc5)CC4)c3)OC3OC4(C)CCC1C32OO4` (stereo not drawn) [Compound 13f, 10β-[[3-[(Phenylpiperazyl)methyl]benzyl]oxy]dihydroartemisinin], the values for the IC50 in series [1] and in series [2] (setting [3]) were 3.4 nM and 6.6 nM, respectively.
With `CC1CCC2C(C)C(OCc3ccc(CN4CCN(c5ccc(C(F)(F)F)cc5)CC4)cc3)OC3OC4(C)CCC1C32OO4` (stereo not drawn) [Compound 13d, 10β-[[4-[(4-Trifluoromethylphenylpiperazyl)methyl]benzyl]oxy]dihydroartemisinin], the half-maximal inhibitory concentration (IC50) is 8.1 nM in series [1] and 12.5 nM in series [2] (setting [3]).
`CC1CCC2C(C)C(OCc3ccc(CN4CCN(c5ccc([N+](=O)[O-])cc5)CC4)cc3)OC3OC4(C)CCC1C32OO4` (stereo not shown) [Compound 13b]: the IC50 in series [2] (setting [3]) is 138 nM.
